From patent publication US20030055104A1, “Method, composition and kit to remove lice ova from the hair” (priority 2000, published 2003)

Key:
[1] = system: nit attached to human hair strand; assay: Force required to dislodge a nit from a treated hair strand with a nit comb (INSTRON 1123 / CORREX Gram Gage); set-up: species or system lice; conditions: in vitro studies
Description: FIG. 1 is a diagram of the test setup whereby the force required to dislodge a nit from a human hair strand with a nit comb was measured.
FIG. 2 is a view showing the positioning of the nit and hair strand between the teeth of the comb shown in the test setup of FIG. 1.
The nit-loosening effectiveness of the novel compositions and the methods of treatment employing them were tested extensively using an INSTRON® 1123 Universal Testing Instrument (Instron Corp. Canton, Mass.). This instrument, in conjunction with a CORREX® Gram Gage (SPI, Switzerland), measures the force required to loosen nits from a hair shaft and records it on paper.
Laboratory tests were performed to measure the decrease in the combing force required to remove nits from hair strands treated with various compositions of the invention as compared with controls and with prior art egg-loosening compositions.
1. Hair strand 10 with nit 12 attached.
2. Fine tooth plastic nit comb 14.
3. Controls and test compositions.
4. INSTRON® 1123 Universal Testing Instrument 16 (Instron Corp., Canton, Mass.) with a 0-50 kg load cell 18.
5. CORREX® Gram Gage 20-2-15 g with flat tip (SPI, Switzerland).
6. Clamp plate assembly 22.
7. […]
e) Start the Instron, and the force required to loosen the nits will be recorded by the paper chart recorder 30, and can also be read on the Gram Gage 20. […]

[2] = cited from earlier work

Compound: CO[C@H]1CO[C@H]2[C@@H]1OC[C@H]2OC [Dimethyl isosorbide, 1,4:3,6 dianhydro-2,5-di-o-methyl-D-glucitol]
- nit-loosening effectiveness (in words) [1]: good nit-loosening utility
- solubility (in words) [2]: water and oil-soluble
